Earlier results, collected in publication PMC7275090, “Mode of action of teixobactins in cellular membranes” (Nature Communications, 2020).

Tested on: bacteria
Details: cited from earlier work

## Teixobactin
  antibacterial activity: excellent activity
